Source: patent US8623377B2, “Joint-homing peptides and uses thereof” (University of Maryland, Baltimore, priority 2011, dated 2014)

Tests used:
[1] = test system: human synovial tissue engrafted s.c.; conditions: human synovial tissue engrafted s.c. in SCID mice; cited from earlier work
ERK1/2 = assay: VEGF-induced signaling in HUVECs, Western blot p-ERK1/2; type: cell-based, human; conditions: peptide 10, 50, 100 μg/mL 1 h, then VEGF 10 ng/mL 20 min
Excerpt: (§1) FIG. 6A: HUVECs were stimulated with VEGF and treated with the indicated concentrations of peptides. Phosphorylated ERK1/2 and Akt, as well as total ERK1/2 and Akt, were detected by Western blot analysis. FIG. 6B: Thereafter, p-ERK1/2 and p-Akt were quantified by densitometry, normalized to total ERK1/2 (left) and Akt (right), respectively, and compared with cells in serum-free medium. The results of a representative experiment from a set of three independent experiments are shown. *P<0.05, compared with the positive control.
(§2) HUVECs were grown in F-12K medium in the presence of endothelial cell growth supplement (ECGS) (BD Biosciences) and 15% FBS. Confluent cells were starved in basal medium (without ECGS and FBS) for 6 h. Then the cells were pretreated for 1 h with different concentrations (10, 50, and 100 μg/mL) of a peptide (NQR, ADK, or RGD) in fresh basal medium, followed by treatment with VEGF (10 ng/mL) for another 20 min. The conditional medium was discarded, and the cells were lysed using a lysis buffer containing protease inhibitors and phosphatase inhibitors. The cell lysate was then centrifuged, and the resulting supernatant was used for analysis of signaling molecules using specific antibodies to human pERK1/2, ERK1/2, pAkt, Akt, and GAPDH (Cell Signaling Technology) by Western blot analysis. The intensity of the bands in the gel was quantified by densitometry. The levels of p-ERK1/2 and p-Akt were normalized to total ERK1/2 and Akt, respectively, and compared with cells in serum-free medium.

[2] = test system: HUVECs attachment to vitronectin; assay: Attachment of HUVECs to vitronectin; type: cell-based, human; conditions: peptide 30-800 μg/mL, 1 h on vitronectin-coated wells
Procedure: HUVECs were first suspended in F-12K medium containing the indicated concentrations of NQR, AK or RGD peptide and then incubated for 1 h in microtiter wells coated with vitronectin. The number of cells that attached to vitronectin was quantified. The results of three independent experiments are shown. *P<0.05, compared with the baseline control.
The attachment of HUVECs to vitrnectin was quantified as described (37, 38). Microtiter wells were coated overnight at 4° C. with 2 μg/mL of vitronectin (BD Biosciences). These wells were then blocked for 1 h at 37° C. with 10 mg/mL of BSA (Sigma-Aldrich). In parallel, HUVECs (1.5×10^5 cells/mL) suspended in F-12K medium containing 10% FBS were incubated for 15 min at 37° C. with different concentrations (30-800 μg/mL) of NQR, ADK, or RGD peptide. Thereafter, this cell suspension 100 μL/well) was added to the vitronectin-coated wells, followed by incubation at 37° C. for 1 h. After washing, the number of attached cells was determined using crystal violet (Fisher Scientific).

Akt = assay: VEGF-induced signaling in HUVECs, Western blot p-Akt; type: cell-based, human; conditions: peptide 10, 50, 100 μg/mL 1 h, then VEGF 10 ng/mL 20 min
Excerpt: as §1, §2

HUVECs = assay: Endothelial tube (tubule) formation on Matrigel with VEGF; type: cell-based, human; conditions: VEGF 10 ng/mL, peptide 0-100 μg/mL
Procedure: FIG. 4A: Draining lymph node leukocytes from arthritic rats were dye-tagged with PKH67 and injected i.v. into arthritic rats. One group of rats was left untreated, and the other groups were treated with ADK or NQR peptide. After 24 hours, the synovium-infiltrating cells (SICs) were harvested from the joints, subjected to cytospin, and analyzed by fluorescence microscopy (left). In parallel, another set of synovium-infiltrating cells were stained with PE-labeled anti-CD3 or anti-CD 11b/c+ antibody and analyzed by flow cytometry (right). FIG. 4B: HUVECs were cultured on Matrigel-coated wells for 24 hours in the presence of VEGF (10 ng/mL) and various concentrations (0-100 μg/mL) of NQR (left), ADK (center), and RGD (right) peptides. The branches of vessel-like tubes were counted. A reprensentative set of results is shown. *P<0.05, compared with the VEGF-alone control.
HUVECs (1×10^4) were cultured in 80 μL/well of growth factor-reduced Matrigel (BD Biosciences) in a 96-well plate in 100 μL/well of F-12K medium (with no supplements). These cells were then treated for 20 h with VEGF (R&D Systems) in the presence or absence of different concentrations of peptides (NQR, ADK, or RGD). Tubule formation was observed under a microscope, quantitated, and photographed.

[3] = test system: adjuvant arthritis in Lewis rats; assay: Antiarthritic activity in the adjuvant arthritis (AA) model, arthritic score; type: in vivo, Lewis rat
Procedure: FIG. 3A: Group of arthritic Lewis rats (n=4 per group) were injected with a peptide (AD, NQR, or RGD) or PBS i.v. on the days indicated by the arrows either at the onset or just after the onset of arthritis. The its were monitored regularly for the disease severity, presented as “arthritic score”. […] The sections were graded for histopathological features associated with arthritis. B, bone; C, cartilage, JS, joint space; SIC, synovium-infiltrating cells.
The synthetic peptide corresponding to the selected phage-encoded peptide was diluted in PBS and injected i.v. into Lewis rats beginning either at the onset or just after the onset of arthritis after Mtb injection. The peptide was injected to rats on alternate days at a dose of 1 or 2 mg/kg body weight. A total of three or four injections were given to each rat. Control animals received an equal volume of PBS. All rats were graded regularly for clinical signs of arthritis (36). The hind paws of these rats were harvested and processed for histopathological examination.
AA was induced in Lewis rats by immunizing them with 1 mg/rat of heat-killed M. tuberculosis H37Ra (Mtb; Difco) in 200 μL of mineral oil (Sigma-Aldrich) via s.c. injection at the base of the tail. Beginning on day 7 after immunization, the rats were observed regularly for signs of arthritis in the paws. The severity of arthritis was evaluated based on erythema and swelling as described previously. The highest score for each paw was 4, and the total maximum score for each rat was 16. The course of AA in the Lewis rat involved the following phases: incubation (days 0-8), onset (days 9-11), peak (days 15-18), and recovery (days 21-27).

αvβ3 = target: T1, αvβ3 (Oryctolagus cuniculus, UniProt A0A5F9CTL5+A0A5F9D0E2); conditions: intra-articular injection, rabbits with antigen-induced arthritis; cited from earlier work
T1 construct: host or cells: rabbit joints in vivo (intra-articular injection)
T1 sequence (A0A5F9D0E2 30-1047): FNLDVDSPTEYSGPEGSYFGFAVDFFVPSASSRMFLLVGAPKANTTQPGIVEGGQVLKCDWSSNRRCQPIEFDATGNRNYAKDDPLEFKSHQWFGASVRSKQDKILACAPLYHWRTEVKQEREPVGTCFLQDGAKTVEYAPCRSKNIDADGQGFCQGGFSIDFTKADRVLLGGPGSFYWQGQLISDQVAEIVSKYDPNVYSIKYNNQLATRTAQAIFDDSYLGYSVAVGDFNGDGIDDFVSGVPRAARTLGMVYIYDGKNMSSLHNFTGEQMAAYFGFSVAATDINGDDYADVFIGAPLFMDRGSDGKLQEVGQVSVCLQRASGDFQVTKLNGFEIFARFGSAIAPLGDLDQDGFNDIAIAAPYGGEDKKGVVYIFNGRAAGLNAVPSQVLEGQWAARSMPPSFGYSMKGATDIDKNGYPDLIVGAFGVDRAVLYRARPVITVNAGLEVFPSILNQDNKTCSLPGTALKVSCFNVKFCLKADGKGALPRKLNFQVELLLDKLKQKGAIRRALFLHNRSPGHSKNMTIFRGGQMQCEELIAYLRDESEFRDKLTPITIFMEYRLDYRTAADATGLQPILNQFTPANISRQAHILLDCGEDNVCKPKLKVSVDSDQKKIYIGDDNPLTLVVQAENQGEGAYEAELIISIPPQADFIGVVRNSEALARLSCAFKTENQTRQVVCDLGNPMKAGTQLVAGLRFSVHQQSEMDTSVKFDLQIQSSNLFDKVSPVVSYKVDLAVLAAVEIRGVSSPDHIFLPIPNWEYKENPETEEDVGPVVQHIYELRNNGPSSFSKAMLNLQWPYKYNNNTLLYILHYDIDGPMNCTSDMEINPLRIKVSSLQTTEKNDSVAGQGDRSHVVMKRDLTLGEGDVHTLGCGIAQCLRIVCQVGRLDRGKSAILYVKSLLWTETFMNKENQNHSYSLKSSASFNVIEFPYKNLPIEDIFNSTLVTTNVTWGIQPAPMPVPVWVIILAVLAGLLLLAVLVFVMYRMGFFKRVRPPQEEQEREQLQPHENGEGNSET
T1 sequence (A0A5F9CTL5 1-785): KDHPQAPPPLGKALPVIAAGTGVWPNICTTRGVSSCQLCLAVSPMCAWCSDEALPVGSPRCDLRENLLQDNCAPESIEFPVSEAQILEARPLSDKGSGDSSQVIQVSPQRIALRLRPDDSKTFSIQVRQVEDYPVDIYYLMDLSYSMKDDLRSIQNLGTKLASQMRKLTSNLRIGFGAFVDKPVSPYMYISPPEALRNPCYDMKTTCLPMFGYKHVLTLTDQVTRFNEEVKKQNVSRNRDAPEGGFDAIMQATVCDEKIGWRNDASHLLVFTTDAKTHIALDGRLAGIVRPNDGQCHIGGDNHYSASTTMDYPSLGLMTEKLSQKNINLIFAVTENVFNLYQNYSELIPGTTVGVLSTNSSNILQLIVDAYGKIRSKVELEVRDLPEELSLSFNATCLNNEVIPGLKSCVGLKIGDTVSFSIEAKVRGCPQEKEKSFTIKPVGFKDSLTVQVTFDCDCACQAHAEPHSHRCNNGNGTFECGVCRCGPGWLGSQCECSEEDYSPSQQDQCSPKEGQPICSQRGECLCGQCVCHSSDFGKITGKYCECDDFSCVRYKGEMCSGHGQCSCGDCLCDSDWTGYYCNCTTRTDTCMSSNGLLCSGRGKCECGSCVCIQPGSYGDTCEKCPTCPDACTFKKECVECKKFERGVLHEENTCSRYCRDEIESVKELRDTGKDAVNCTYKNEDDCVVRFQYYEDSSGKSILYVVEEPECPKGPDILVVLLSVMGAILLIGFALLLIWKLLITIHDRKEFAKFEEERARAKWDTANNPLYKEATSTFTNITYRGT

Substance | homing of peptide [1] | effect on VEGF-induced pERK (ERK1/2) | effect on attachment of HUVECs to vitronectin [2] | effect on VEGF-induced pAkt (Akt) | effect on endothelial cell tube formation (HUVECs) | difference in arthritic score versus PBS/ADK ([3]; from day 15 to day 27 (FIG. 3A center)) | suppression of the arthritic process ([3]; i.v. injection around the time of onset of arthritis, 1 or 2 mg/kg on alternate days) | down-modulation of arthritis ([3]; injected just after the onset of AA) | effect on arthritis (αvβ3)
CKSTHDRLC [literature peptide homing to human synovial tissue engrafted in SCID mice] | homing to the human synovial tissue |  |  |  |  |  |  |  | 
CRNADKFPC (Synthetic peptide homing to joint in an animal) [ADK peptide, joint-homing phage-derived synthetic peptide] |  | had no effect | Neither peptide had any effect | had no effect | had no effect |  |  |  | 
RGDfK [RGD peptide, reference compound] |  | the opposite was observed | significantly inhibited cell attachment | the opposite was observed | inhibited tube formation | significant | also suppressed arthritis | effective in down-modulating arthritis | 
RGDfV |  |  |  |  |  |  |  |  | reduce clinical arthritis, synovial angiogenesis, and joint damage
